According to patent publication US8318184B2, “MGLU2 agonists” (Eli Lilly and Company, priority 2009, dated 2012):

Assays:
NIH-Swiss mice = test: Forced Swim Test in mice; format: in vivo, mouse; conditions: i.p.
Experimental: In this assay, mechanisms with purported antidepressant-like activity decrease immobility in a brief inescapable forced swim episode.
The forced-swim test is conducted with both mice (male, NIH-Swiss mice, 20-25 g, Harlan Sprague-Dawley, Indianapolis, Ind.) and rats (male, Sprague-Dawley rats, 250-350 g, Harlan Sprague-Dawley, Indianapolis, Ind.). Mice are placed in clear plastic cylinders (diameter 10 cm; height: 25 cm) filled to 6 cm with 22-25° C. water for six min. The duration of immobility is recorded during the last 4 min of a six-minute trial. Rats are treated similarly, albeit in clear plastic cylinders of larger dimensions (diameter: 18 cm; height: 40 cm) filled with water (22-25° C.) to a depth of 16 cm for 15 min. Additionally, mice receive a single forced swim exposure; rats receive two, 5-min sessions separated by 24 hours (data is recorded only on Day 2). […] Imipramine is used as a positive control for these studies. […] Compounds are in a clear solution. The amount of time spent immobile (defined as movements only necessary to keep the subject's head above water) is the dependent measure and recorded by an observer blinded to the drug treatment of the subjects. Data are analyzed by post-hoc Dunnett's test with alpha level set at 0.05. The mouse version of the forced swim test is most commonly used.

hPepT1 = molecular target: T1, hPepT1 (Homo sapiens, UniProt P46059); test: In Vitro PepT1 GlySar Inhibition Screen and IC50 Determination; format: cell-based
T1 construct: expressed in transfected cells; host or cells: HeLa cells (ATCC), transient transfection with FuGene6
T1 sequence (P46059 1-708): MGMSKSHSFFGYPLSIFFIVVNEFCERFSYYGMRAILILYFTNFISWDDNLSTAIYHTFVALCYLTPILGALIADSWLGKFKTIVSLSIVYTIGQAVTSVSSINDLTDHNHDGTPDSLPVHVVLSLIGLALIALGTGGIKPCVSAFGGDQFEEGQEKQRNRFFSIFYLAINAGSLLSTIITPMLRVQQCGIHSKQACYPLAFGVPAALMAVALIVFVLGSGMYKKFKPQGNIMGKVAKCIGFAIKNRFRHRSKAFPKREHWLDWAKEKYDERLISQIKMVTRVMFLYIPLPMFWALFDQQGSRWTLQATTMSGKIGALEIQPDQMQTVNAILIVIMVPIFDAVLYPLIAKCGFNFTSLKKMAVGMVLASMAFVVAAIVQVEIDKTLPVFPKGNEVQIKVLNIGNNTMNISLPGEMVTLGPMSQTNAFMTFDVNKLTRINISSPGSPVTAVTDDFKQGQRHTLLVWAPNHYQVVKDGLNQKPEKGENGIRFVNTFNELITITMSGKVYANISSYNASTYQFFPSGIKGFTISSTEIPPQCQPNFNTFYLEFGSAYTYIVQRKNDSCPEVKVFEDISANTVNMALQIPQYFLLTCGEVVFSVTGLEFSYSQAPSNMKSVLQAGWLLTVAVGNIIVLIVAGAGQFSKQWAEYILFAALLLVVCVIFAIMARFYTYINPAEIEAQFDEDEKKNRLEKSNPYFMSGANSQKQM
Experimental: PepT1 assays are established to examine the ability of the amino acid prodrug compounds to interact with the intestinal absorption transporter PepT1.
HeLa cells, […], (American Type Culture Collection) are grown in Hyclone Medium (Invitrogen, Cat# SH30243) containing 10% fetal bovine serum (FBS), 0.1 mM non essential amino acids (NEAA), and 100 units/mL penicillin with 100 μg/mL streptomycin at 37° C. in a 5% CO2 humidified atmosphere. The cell line is used for up to 40 passages and then discarded. Frozen cells in 1 ml vials are thawed in water bath for 1-2 minutes and added to 5 mL of cell medium at 37° C. Each of the T-flasks is provided with 8.5 mL of the fresh medium and 1.5 mL of the cell stock. Cells are passaged twice during a week. This is achieved by rinsing the flasks with 10 mL of phosphate buffered saline-ethylene diaminetetra acetic acid (PBS-EDTA), adding 2 mL of trypsin for 2-5 minutes, to detach the cells, and adding 8 mL of fresh medium to inhibit further activity of trypsin. Each new flask receives a combination of 8.5 mL of fresh medium and 1.5 mL of cell stock, in order to obtain 1:6 cell dilution. Cells are incubated at 37° C., until ready for the uptake study.
Cells that are 70-80% confluent in the T-flasks are plated 1 day prior to the transfection procedure. The flask with the cell stock is treated with PBS-EDTA and trypsin to detach the cells, and transfection medium is used from this point. Transfection medium consists of Dulbecco's Modified Eagle Medium (DMEM)+NEAA. To each well, 0.5 mL of the cell mixture is added (1.3×10^5 is the desired cell concentration) and the cells are incubated at 37° C. overnight. Twenty four hours before the assay, cells are transfected with PEPT1. Transfection mixture is prepared by mixing 600 μL of serum free transfection medium, 18 μL of FuGene6 (Roche Diagnostics), and 11 μg of the PepT1 DNA. The transfection reagent-DNA complex is incubated for 20 minutes and 24 μL of the reagent-DNA complex is added to each well.
J. Pharm. Exper Ther. 310:437-445). […] Uptake media consists of 140 mM NaCl, 5.4 mM KCl, 1.8 mM CaCl2, 0.8 mM MgSO4, 5 mM Glucose, 25 mM tris(hydroxymethyl)aminomethane buffer (TRIS). The solution is then brought to pH 6.0 using 2-(N-morpholino)ethanesulfonic acid. The incubation volume is 500 μL and is performed at room temperature for 3 minutes. To stop the uptake at the conclusion of the incubation time, the uptake media is aspirated off of the cell monolayer and 500 μL of ice cold PBS added to the well. The cells are washed 3 times with 500 μL of room temperature PBS without Ca^+2 and Mg^+2. The cells are then lysed with 300 μL of 1% Triton X100 H2O solution. […] A no inhibitor control is established and the percent inhibition of each prodrug is calculated with respect to this control.
The incubation and sampling procedures are exactly the same as the PepT1 screen described above. […]

[1] = mean and standard error of the mean

Row | inhibition at 5000 µM (hPepT1; 5 mM, pH 6.0, PepT1 transiently transfected HeLa cells, read-out: hPepT1 [3H]Gly-Sar uptake inhibition at 5 mM) [%] | IC50 (hPepT1; 0.0625 to 25 mM, PepT1 transfected HeLa cells, read-out: hPepT1 [3H]Gly-Sar uptake inhibition IC50) [µM] | Structure (SMILES) | ED60 (NIH-Swiss mice; 60 min prior to testing, single study) [mg/kg] | antidepressant-like effects (NIH-Swiss mice; F4,39=9.9, p<0.0001) | maximal effect, % of vehicle immobility levels (NIH-Swiss mice; at the 10 mg/kg dose, single study) [%] | ED60, mean of four separate replications (NIH-Swiss mice; [1]) [mg/kg] | maximal effect, % of vehicle-treated immobility levels, four separate replications (NIH-Swiss mice; [1]) [%]
1 | – | – | N[C@@]1(C(=O)O)C[C@@H](Sc2nnc[nH]2)[C@H]2[C@H](C(=O)O)[C@H]21 [Example 1, (1R,2S,4R,5R,6R)-2-Amino-4-(4H-1,2,4-triazol-3-ylsulfanyl)bicyclo[3.1.0]hexane-2,6-dicarboxylic acid] | 10.5 | prominent antidepressant-like effects | 61 | 6.1 ± 2.5 | 49.5±11.5
2 | 38 | 1840 | C[C@H](N)C(=O)N[C@@]1(C(=O)O)C[C@@H](Sc2nnc[nH]2)[C@H]2[C@H](C(=O)O)[C@H]21.Cl [Example 2, (1R,2S,4R,5R,6R)-2-[[(2S)-2-Aminopropanoyl]amino]-4-(1H-1,2,4-triazol-3-ylsulfanyl)bicyclo[3.1.0]hexane-2,6-dicarboxylic acid hydrochloride] | – | – | – | – | –
